pIC50: −log10 of the molar value. Where a name gives a salt, the structure may show the parent alone.
Experiments:
SSTR5 [1] = target: T1, SSTR5 (Homo sapiens, UniProt P35346); experiment: Functional assay of inhibition of SSTR5 mediated cyclic AMP production in SSTR5 expressing CHO cells; format: cell-based, human; details: forskolin (FSK) plus SS-28, read-out: cAMP IC50
SSTR5 [2] = target: T1, SSTR5; experiment: SSTR5 receptor-ligand binding assay, CHO-K1 cell membranes, 125I-SRIF radioligand; design: expressed in transfected cells; details: Table 4, read-out: Bnd IC50
Protocol: The receptor-ligand binding assays of all 5 subtype of SSTRs were performed with membranes isolated from Chinese hamster ovary (CHO)-K1 cells stably expressing the cloned human somatostatin receptors in 96-well format as previous reported. (Yang et al. PNAS 95:10836-10841, (1998), Birzin et al. Anal. Biochem. 307:159-166, (2002)).
The stable cell lines for SSTR1-SSTR5 were developed by stably transfecting with DNA for all five SSTRs using Lipofectamine. Neomycin-resistant clones were selected and maintained in medium containing 400 μg/mL G418 (Rohrer et al. Science 282:737-740, (1998)). Binding assays were performed using (3-125I-Tyr11)-SRIF-14 or (3-125I-Tyrl 1)-SRIF-28 as the radioligand (used at 0.1 nM) and The Packard Unifilter assay plate. The assay buffer consisted of 50 mM TrisHCl (pH 7.8) with 1 mM EGTA, 5 mM MgCl2, leupeptin (10 μg/mL), pepstatin (10 μg/mL), bacitracin (200 μg/mL), and aprotinin (0.5 μg/mL). CHO-K1 cell membranes, radiolabeled somatostatin, and unlabeled test compounds were resuspended or diluted in this assay buffer. Unlabeled test compounds were examined over a range of concentrations from 0.01 nM to 10,000 nM. The Ki values for compounds were determined as described by Cheng and Prusoff Biochem Pharmacol. 22:3099-3108 (1973).

T1 sequence (P35346 whole entry): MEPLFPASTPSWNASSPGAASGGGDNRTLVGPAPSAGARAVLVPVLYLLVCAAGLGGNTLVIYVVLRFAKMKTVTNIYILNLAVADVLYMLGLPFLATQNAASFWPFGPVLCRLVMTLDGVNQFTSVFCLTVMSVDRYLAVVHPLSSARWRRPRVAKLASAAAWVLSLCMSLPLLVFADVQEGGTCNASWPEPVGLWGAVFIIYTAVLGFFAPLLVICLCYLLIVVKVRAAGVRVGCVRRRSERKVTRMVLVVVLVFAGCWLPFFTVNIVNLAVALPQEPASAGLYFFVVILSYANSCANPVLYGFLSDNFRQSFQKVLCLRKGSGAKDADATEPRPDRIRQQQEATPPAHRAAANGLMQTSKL

| Compound | pIC50 (SSTR5 [1]) | pIC50 (SSTR5 [2]) |
| --- | --- | --- |
| 4-{8-[(4,4-Dimethyl-3,4-dihydro-2-H-chromen-6-yl)methyl]-1-oxa-2,8-diazaspiro[4.5]dec-2-en-3-yl}benzoic acid, TFA salt [Example 2] | 8.28 | 8.37 |
| CCOc1cc(CN2CCC3(CC2)CC(c2ccc(C(=O)O)cc2)=NO3)cc(OCC)c1-c1ccc(F)cc1 [Example 1, 4-{8-[(2,6-Diethoxy-4′-fluorobiphenyl-4-yl)methyl]-1-oxa-2,8-diazaspiro[4.5]dec-2-en-3-yl}benzoic acid, TFA salt] | 9.14 | 8.92 |
| CC(C)(C)n1cc(CN2CCC3(CC2)CC(c2ccc(C(=O)O)cc2)=NO3)c(-c2ccc(F)c(F)c2F)n1 [Example 3, 4-(8-{[1-tert-Butyl-3-(2,3,4-trifluorophenyl)-1H-pyrazol-4-yl]methyl})-1-oxa-2,8-diazaspiro[4.5]dec-2-en-3-yl)benzoic acid, TFA salt] | 8.09 | 8.55 |
| CCOc1ccc(-c2ccc(F)cc2F)c(CN2CCC3(CC2)CC(c2ccc(C(=O)O)cc2)=NO3)c1 [Example 4, 4-{8-[(4-Ethoxy-2′,4′-difluorobiphenyl-2-yl)methyl]-1-oxa-2,8-diazaspiro[4.5]dec-2-en-3-yl}benzoic acid] | 8.52 | 8.54 |
| CCOc1cc(CN2CCC3(CC2)CC(c2ccc(C(=O)O)cc2)=NO3)cc(OCC)c1OCC(F)(F)F [Example 5, 4-{8-[3,5-Diethoxy-4-(2,2,2-trifluoroethoxy)benzyl]-1-oxa-2,8-diazaspiro[4.5]dec-2-en-3-yl}benzoic acid] | 8.62 | 8.22 |
| CCOc1ccc(-c2cc(F)c(F)cc2F)c(CN2CCC3(CC2)CC(c2ccc(C(=O)O)cc2)=NO3)c1 [Example 10, 4-{8-[(4-Ethoxy-2′,4′,5′-trifluorobiphenyl-2-yl)methyl]-1-oxa-2,8-diazaspiro[4.5]dec-2-en-3-yl}benzoic acid] | 8.24 | 8.74 |
| CC(C)n1cc(CN2CCC3(CC2)CC(c2ccc(C(=O)O)cc2)=NO3)c2c(-c3ccc(F)cc3)cccc21 [Example 39, 4-(8-{[4-(4-Fluorophenyl)-1-(propan-2-yl)-1H-indol-3-yl]methyl}-1-oxa-2,8-diazaspiro[4.5]dec-2-en-3-yl)benzoic acid, TFA salt] | 9.74 |  |
| CC(C)n1cc(CN2CCC3(CC2)CC(c2ccc(C(=O)O)cc2)=NO3)c2c(-c3ccc(F)nc3)cccc21 [Example 40, 4-(8-{[4-(6-Fluoropyridin-3-yl)-1-(propan-2-yl)-1H-indol-3-yl]methyl}-1-oxa-2,8-diazaspiro[4.5]dec-2-en-3-yl)benzoic acid, TFA salt] | 9.40 |  |
| CC(C)n1cc(CN2CCC3(CC2)CC(c2ccc(C(=O)O)cc2)=NO3)c2c(-c3cc(F)c(F)cc3F)cccc21 [Example 41, 4-(8-{[4-(2,4,5-Trifluorophenyl)-1-(propan-2-yl)-1H-indol-3-yl]methyl}-1-oxa-2,8-diazaspiro[4.5]dec-2-en-3-yl)benzoic acid, TFA salt] | 9.52 |  |
| CC(C)n1cc(CN2CCC3(CC2)CC(c2ccc(C(=O)O)cc2)=NO3)c2c(-c3ccc(F)cc3)ccnc21 [Example 43, 4-(8-{[4-(4-Fluorophenyl)-1-(propan-2-yl)-1H-pyrrolo[2,3-b]pyridin-3-yl]methyl}-1-oxa-2,8-diazaspiro[4.5]dec-2-en-3-yl)benzoic acid, TFA salt] | 8.60 |  |
| Cc1cccc2c(CN3CCC4(CC3)CC(c3ccc(C(=O)O)cc3)=NO4)cn(C(C)C)c12 [Example 44, 4-(8-{[7-Methyl-1-(propan-2-yl)-1H-indol-3-yl]methyl}-1-oxa-2,8-diazaspiro[4.5]dec-2-en-3-yl)benzoic acid, TFA salt] | 7.84 |  |
| Cc1cccc2c(CN3CCC4(CC3)CC(c3ccc(C(=O)O)cc3)=NO4)cn(C3CC3)c12 [Example 45, 4-(8-{[7-Methyl-1-(cyclopropyl)-1H-indol-3-yl]methyl}-1-oxa-2,8-diazaspiro[4.5]dec-2-en-3-yl)benzoic acid, TFA salt] | 8.04 |  |
| CC(C)n1cc(CN2CCC3(CC2)CC(c2ccc(C(=O)O)cc2)=NO3)c2c(F)c(F)c(F)c(F)c21 [Example 46, 4-(8-{[1-(propan-2-yl)-4,5,6,7-(tetrafluoro)-1H-indol-3-yl]methyl}-1-oxa-2,8-diazaspiro[4.5]dec-2-en-3-yl)benzoic acid, TFA salt] | 7.92 |  |
| CC(C)n1cc(CN2CCC3(CC2)CC(c2ccc(C(=O)O)cc2)=NO3)c2c(C3CC3)cccc21 [Example 47, 4-(8-{[4-(Cyclopropyl)-1-(propan-2-yl)-1H-indol-3-yl]methyl}-1-oxa-2,8-diazaspiro[4.5]dec-2-en-3-yl)benzoic acid, TFA salt] | 9.55 |  |
| CC(C)n1cc(CN2CCC3(CC2)CC(c2ccc(C(=O)O)cc2)=NO3)c2cccc(C3CC3)c21 [Example 48, 4-(8-{[7-(Cyclopropyl)-1-(propan-2-yl)-1H-indol-3-yl]methyl}-1-oxa-2,8-diazaspiro[4.5]dec-2-en-3-yl)benzoic acid, TFA salt] | 8.47 |  |
| O=C(O)c1ccc(C2=NOC3(CCN(Cc4cn(C5CC5)c5ccc(C6CC6)cc45)CC3)C2)cc1 [Example 49, 4-(8-{[1,5-(Dicyclopropyl)-1H-indol-3-yl]methyl}-1-oxa-2,8-diazaspiro[4.5]dec-2-en-3-yl)benzoic acid, TFA salt] | 8.60 |  |
| O=C(O)c1ccc(C2=NOC3(CCN(Cc4cn(C5CC5)c5c(C6CC6)cccc45)CC3)C2)cc1 [Example 50, 4-(8-{[1,7-(Dicyclopropyl)-1H-indol-3-yl]methyl}-1-oxa-2,8-diazaspiro[4.5]dec-2-en-3-yl)benzoic acid, TFA salt] | 7.87 |  |
| CC(C)n1cc(CN2CCC3(CC2)CC(c2ccc(C(=O)O)cc2)=NO3)c2cc(F)ccc21 [Example 51, 4-(8-{[5-Fluoro-1-(propan-2-yl)-1H-indol-3-yl]methyl}-1-oxa-2,8-diazaspiro[4.5]dec-2-en-3-yl)benzoic acid, TFA salt] | 8.08 |  |
| Cc1cc(-c2cccnc2)c(CN2CCC3(CC2)CC(c2ccc(C(=O)O)cc2)=NO3)cc1C(F)(F)F [Example 68] | 7.88 |  |
| O=C(O)c1ccc(C2=NOC3(CCN(Cc4ccc(Cl)c(Br)c4)CC3)C2)cc1 [Example 70, 4-[8-(3-Bromo-4-chlorobenzyl)-1-oxa-2,8-diazaspiro[4.5]dec-2-en-3-yl]benzoic acid] | 7.58 |  |
| O=C(O)c1ccc(C2=NOC3(CCN(Cc4cc(Cl)cc(C5CC5)c4)CC3)C2)cc1 [Example 85, 4-[8-(3-Chloro-5-cyclopropylbenzyl)-1-oxa-2,8-diazaspiro[4.5]dec-2-en-3-yl]benzoic acid, TFA salt] | 8.65 |  |
| CC1(C)CCOc2c(Cl)cc(CN3CCC4(CC3)CC(c3ccc(C(=O)O)cc3)=NO4)cc21 [Example 87, 4-{8-[(8-Chloro-4,4-dimethyl-3,4-dihydro-2H-chromen-6-yl)methyl]-1-oxa-2,8-diazaspiro[4.5]dec-2-en-3-yl}benzoic acid trifluoroacetate] | 8.82 |  |
| Cc1cc(CN2CCC3(CC2)CC(c2ccc(C(=O)O)cc2)=NO3)cc2c1OC(C)(C)CC2 [Example 91, 4-{8-[(2,2,8-Trimethyl-3,4-dihydro-2H-chromen-6-yl)methyl]-1-oxa-2,8-diazaspiro[4.5]dec-2-en-3-yl}benzoic acid, TFA salt] | 7.14 |  |
| CC1(C)CC2(CC2)c2cc(CN3CCC4(CC3)CC(c3ccc(C(=O)O)cc3)=NO4)ccc2O1 [Example 95, 4-{8-[(2,2-Dimethyl-2,3-dihydrospiro[chromene-4,1′-cyclopropan]-6-yl)methyl]-1-oxa-2,8-diazaspiro[4.5]dec-2-en-3-yl}benzoic acid, TFA salt] | 7.73 |  |
| CC1(C)CC2(CC2)c2cc(CN3CCC4(CC3)CC(c3ccc(C(=O)O)cc3)=NO4)cc(Cl)c2O1 [Example 96, 4-{8-[(8-Chloro-2,2-dimethyl-2,3-dihydrospiro[chromene-4,1′-cyclopropan]-6-yl)methyl]-1-oxa-2,8-diazaspiro[4.5]dec-2-en-3-yl}benzoic acid, TFA salt] | 8.03 |  |
| CC1(C)CC2(CC2)c2cc(CN3CCC4(CC3)CC(c3ccc(C(=O)O)cc3)=NO4)cc(C3CC3)c2O1 [Example 97, 4-{8-[(8-Cyclopropyl-2,2-dimethyl-2,3-dihydrospiro[chromene-4,1′-cyclopropan]-6-yl)methyl]-1-oxa-2,8-diazaspiro[4.5]dec-2-en-3-yl}benzoic acid, TFA salt] | 8.39 |  |
| CC1(C)CCSc2c(C3CC3)cc(CN3CCC4(CC3)CC(c3ccc(C(=O)O)cc3)=NO4)cc21 [Example 98, 4-{8-[(8-Cyclopropyl-4,4-dimethyl-3,4-dihydro-2H-thiochromen-6-yl)methyl]-1-oxa-2,8-diazaspiro[4.5]dec-2-en-3-yl}benzoic acid, TFA salt] | 7.90 |  |
| CC1(C)CCS(=O)(=O)c2c(Cl)cc(CN3CCC4(CC3)CC(c3ccc(C(=O)O)cc3)=NO4)cc21 [Example 99, 4-{8-[(8-Chloro-4,4-dimethyl-1,1-dioxido-3,4-dihydro-2H-thiochromen-6-yl)methyl]-1-oxa-2,8-diazaspiro[4.5]dec-2-en-3-yl}benzoic acid, TFA salt] | 6.33 |  |

From patent US20130040978A1 (priority 2010, published 2013)
